Assay results from PMC10169810, “Ligand-induced activation and G protein coupling of prostaglandin F2α receptor” (Nature Communications, 2023).
Values joined by “and” are separate entries in the source; they are usually repeats but may differ in a detail not shown here. Equal values may be shown once. “Also recorded” adds a separate entry of the source.

Legend:
Assay type in all cases: cell-based
human FP (WT) = molecular target: T1, human FP (WT) (Homo sapiens, UniProt P43088); experiment: IP-One (IP1) accumulation assay, wild-type FP
T1 construct: Flag; expressed in transfected cells; host or cells: AD293 cells
Protocol: (§1) IP-One production was measured using the IP-One HTRF kit (Cisbio)[50]. Briefly, AD293 cells (Agilent) were grown to a density of 400,000–500,000 cells per mL and then […] with separate plasmids at a suitable concentration. The culture was collected by centrifugation 24 h after incubation at 37 °C in 5% CO2 with a Stimulation Buffer. The cell suspension was then dispensed in a white 384-well plate at a volume of 7 μl per well before adding 7 μl of ligands. The mixture was incubated for 1 h at 37 °C. IP-One-d2 and anti-IP-One Cryptate dissolved in Lysis Buffer (3 μl each) were subsequently added and incubated for 15-30 min at room temperature before measurement. Intracellular IP-One measurement was carried out with the IP-One HTRF kit and EnVision multi-plate reader (PerkinElmer) according to the manufacturer’s instructions. Data were normalized to the baseline response of the ligand. pEC50 Emin, and Emax for each curve were calculated by GraphPad Prism 8.0. ∆pEC50 equals pEC50 of agonists to specific Mutant minus pEC50 of agonists to WT. Data are presented as mean values ± SEM; n = 3 independent samples; n.s. no significant; *p < 0.05; **p < 0.01; ***p < 0.001.

FP S33A = molecular target: T2, FP S33A (Homo sapiens, UniProt P43088, S33A); experiment: IP-One accumulation assay, FP S33A mutant
T2 construct: Flag; expressed in transfected cells; host or cells: AD293 cells
Protocol: as §1

FP H81A = molecular target: T3, FP H81A (Homo sapiens, UniProt P43088, H81A); experiment: IP-One accumulation assay, FP H81A mutant; conditions: H81 mutated to alanine vs WT FP
T3 construct: Flag; expressed in transfected cells; host or cells: AD293 cells
Protocol: as §1

FP Y92A = molecular target: T4, FP Y92A (Homo sapiens, UniProt P43088, Y92A); experiment: IP-One accumulation assay, FP Y92A mutant; conditions: Y92 mutant (alanine) vs WT FP
T4 construct: Flag; expressed in transfected cells; host or cells: AD293 cells
Protocol: as §1

FP M115A = molecular target: T5, FP M115A (Homo sapiens, UniProt P43088, M115A); experiment: IP-One accumulation assay, FP M115A mutant
T5 construct: Flag; expressed in transfected cells; host or cells: AD293 cells
Protocol: as §1

FP S118A = molecular target: T6, FP S118A (Homo sapiens, UniProt P43088, S118A); experiment: IP-One accumulation assay, FP S118A mutant; conditions: S118A mutant vs WT FP; IP1 accumulation, AD293 cells; single values of n = 3 independent samples
T6 construct: Flag; expressed in transfected cells; host or cells: AD293 cells
Protocol: as §1

FP T184A = molecular target: T7, FP T184A (Homo sapiens, UniProt P43088, T184A); experiment: IP-One accumulation assay, FP T184A mutant; conditions: T184 mutant (alanine) vs WT FP
T7 construct: Flag; expressed in transfected cells; host or cells: AD293 cells
Protocol: as §1

FP F205A = molecular target: T8, FP F205A (Homo sapiens, UniProt P43088, F205A); experiment: IP-One accumulation assay, FP F205A mutant; conditions: F205 to alanine vs WT FP
T8 construct: Flag; expressed in transfected cells; host or cells: AD293 cells
Protocol: as §1

FP W262A = molecular target: T9, FP W262A (Homo sapiens, UniProt P43088, W262A); experiment: IP-One accumulation assay, FP W262A mutant; conditions: W262 to alanine vs WT FP
T9 construct: Flag; expressed in transfected cells; host or cells: AD293 cells
Protocol: as §1

FP F265A = molecular target: T10, FP F265A (Homo sapiens, UniProt P43088, F265A); experiment: IP-One accumulation assay, FP F265A mutant
T10 construct: Flag; expressed in transfected cells; host or cells: AD293 cells
Protocol: as §1

FP I290A = molecular target: T11, FP I290A (Homo sapiens, UniProt P43088); experiment: IP-One accumulation assay, FP I290A mutant; conditions: L290 to alanine vs WT FP
T11 construct: Flag; expressed in transfected cells; host or cells: AD293 cells
Protocol: as §1

FP R291A = molecular target: T12, FP R291A (Homo sapiens, UniProt P43088, R291A); experiment: IP-One accumulation assay, FP R291A mutant
T12 construct: Flag; expressed in transfected cells; host or cells: AD293 cells
Protocol: as §1

FP T294A = molecular target: T13, FP T294A (Homo sapiens, UniProt P43088, T294A); experiment: IP-One accumulation assay, FP T294A mutant
T13 construct: Flag; expressed in transfected cells; host or cells: AD293 cells
Protocol: as §1

FP Q297A = molecular target: T14, FP Q297A (Homo sapiens, UniProt P43088, Q297A); experiment: IP-One accumulation assay, FP Q297A mutant; conditions: Q297A mutant vs WT FP; IP1 accumulation, AD293 cells; single values of n = 3 independent samples
T14 construct: Flag; expressed in transfected cells; host or cells: AD293 cells
Protocol: as §1

FP L123A = molecular target: T15, FP L123A (Homo sapiens, UniProt P43088, L123A); experiment: IP-One accumulation assay, FP L123A mutant; conditions: L123A mutant vs WT FP
T15 construct: Flag; expressed in transfected cells; host or cells: AD293 cells
Protocol: as §1

FP L213A = molecular target: T16, FP L213A (Homo sapiens, UniProt P43088, L213A); experiment: IP-One accumulation assay, FP L213A mutant; conditions: L213A mutant vs WT FP
T16 construct: Flag; expressed in transfected cells; host or cells: AD293 cells
Protocol: as §1

FP mutant of E132 = molecular target: T17, FP mutant of E132 (Homo sapiens, UniProt P43088, E132A); experiment: IP-One accumulation assay, FP E132 mutant; conditions: E132 mutant vs WT FP
T17 construct: Flag; expressed in transfected cells; host or cells: AD293 cells
Protocol: as §1

FP R133A = molecular target: T18, FP R133A (Homo sapiens, UniProt P43088, R133A); experiment: IP-One accumulation assay, FP R133A mutant; conditions: for IP1 accumulation response to PGF2α (dose-response source data): FP R133A, replicate values
T18 construct: expressed in transfected cells; host or cells: AD293 cells
Protocol: as §1

FP mutant of C134 = molecular target: T19, FP mutant of C134 (Homo sapiens, UniProt P43088, C134A); experiment: IP-One accumulation assay, FP C134 mutant; conditions: C134 mutant vs WT FP
T19 construct: expressed in transfected cells; host or cells: AD293 cells
Protocol: as §1

FP Q250A = molecular target: T20, FP Q250A (Homo sapiens, UniProt P43088, Q250A); experiment: IP-One accumulation assay, FP Q250A mutant; conditions: Q250A mutant vs WT FP
T20 construct: expressed in transfected cells; host or cells: AD293 cells
Protocol: as §1

FP R308A = molecular target: T21, FP R308A (Homo sapiens, UniProt P43088, R308A); experiment: IP-One accumulation assay, FP R308A mutant; conditions: R308A mutant vs WT FP
T21 construct: expressed in transfected cells; host or cells: AD293 cells
Protocol: as §1

T1 sequence (P43088 whole entry): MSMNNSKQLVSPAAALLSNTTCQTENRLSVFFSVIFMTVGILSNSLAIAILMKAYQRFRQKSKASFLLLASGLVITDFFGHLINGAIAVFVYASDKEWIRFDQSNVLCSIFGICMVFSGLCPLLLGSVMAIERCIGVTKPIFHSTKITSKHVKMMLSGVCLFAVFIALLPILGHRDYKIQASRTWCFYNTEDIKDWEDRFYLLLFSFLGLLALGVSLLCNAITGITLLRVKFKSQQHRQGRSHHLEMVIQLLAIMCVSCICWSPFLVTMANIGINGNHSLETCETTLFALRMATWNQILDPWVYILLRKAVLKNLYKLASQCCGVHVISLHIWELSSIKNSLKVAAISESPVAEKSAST
T5 sequence (P43088 whole entry M115A): as the sequence (P43088 whole entry) above, with M115A counted along it
T13 sequence (P43088 whole entry T294A): as the sequence (P43088 whole entry) above, with T294A counted along it
T18 sequence (P43088 whole entry R133A): as the sequence (P43088 whole entry) above, with R133A counted along it
T10 sequence (P43088 whole entry F265A): as the sequence (P43088 whole entry) above, with F265A counted along it
T12 sequence (P43088 whole entry R291A): as the sequence (P43088 whole entry) above, with R291A counted along it
T6 sequence (P43088 whole entry S118A): as the sequence (P43088 whole entry) above, with S118A counted along it
T2 sequence (P43088 whole entry S33A): as the sequence (P43088 whole entry) above, with S33A counted along it
T14 sequence (P43088 whole entry Q297A): as the sequence (P43088 whole entry) above, with Q297A counted along it
T20 sequence (P43088 whole entry Q250A): as the sequence (P43088 whole entry) above, with Q250A counted along it
T19 sequence (P43088 whole entry C134A): as the sequence (P43088 whole entry) above, with C134A counted along it
T17 sequence (P43088 whole entry E132A): as the sequence (P43088 whole entry) above, with E132A counted along it
T4 sequence (P43088 whole entry Y92A): as the sequence (P43088 whole entry) above, with Y92A counted along it
T16 sequence (P43088 whole entry L213A): as the sequence (P43088 whole entry) above, with L213A counted along it
T8 sequence (P43088 whole entry F205A): as the sequence (P43088 whole entry) above, with F205A counted along it
T3 sequence (P43088 whole entry H81A): as the sequence (P43088 whole entry) above, with H81A counted along it
T7 sequence (P43088 whole entry T184A): as the sequence (P43088 whole entry) above, with T184A counted along it
T9 sequence (P43088 whole entry W262A): as the sequence (P43088 whole entry) above, with W262A counted along it
T11 sequence (P43088 whole entry L290A): as the sequence (P43088 whole entry) above, with L290A counted along it
T21 sequence (P43088 whole entry R308A): as the sequence (P43088 whole entry) above, with R308A counted along it
T15 sequence (P43088 whole entry L123A): as the sequence (P43088 whole entry) above, with L123A counted along it

For `CCCCC[C@H](O)/C=C/[C@@H]1[C@@H](C/C=C\CCCC(=O)O)[C@@H](O)C[C@H]1O` [PGF2α, Prostaglandin F2α], the “IP1 accumulation response to PGF2α (dose-response source data)” value (“IP1 accumulation response to PGF2α” for short) (human FP (WT); log[PGF2α] -5, replicate values) was 101.79 and 97.30 and 100.89, the “IP1 accumulation response to PGF2α” value (human FP (WT); log[PGF2α] -6, replicate values) was 98.67 and 93.94 and 92.75 and the “IP1 accumulation response to PGF2α” value (human FP (WT); log[PGF2α] -7, replicate values) was 95.13 and 96.40 and 98.46. The “IP1 accumulation response to PGF2α” value (human FP (WT); log[PGF2α] -8, replicate values) was 91.30 and 99.44 and 87.48, the “IP1 accumulation response to PGF2α” value (human FP (WT); log[PGF2α] -9, replicate values) was 86.14 and 76.33 and 80.44 and the “IP1 accumulation response to PGF2α” value (human FP (WT); log[PGF2α] -10, replicate values) was 72.71 and 62.76 and 60.52. For the same compound, the “IP1 accumulation response to PGF2α” value (human FP (WT); log[PGF2α] -11, replicate values) was 49.52 and 56.92 and 52.06, the “IP1 accumulation response to PGF2α” value (human FP (WT); log[PGF2α] -14, replicate values) was 42.81 and 48.67 and 43.43 and the “∆pEC50 (pEC50 of agonist to mutant minus pEC50 to WT)” value (FP S33A; S33A mutant vs WT FP, IP1 accumulation, AD293 cells, single values of n = 3 independent samples) was -1.0 and -1.1 and -0.8. The “effect of mutation on agonist affinity / potency (in words)” value (FP S33A; S33 to alanine vs WT FP) was “significantly impaired the affinity”, the “reduction of activity to FP by mutation” value (FP H81A) was “over 1000 folds” and the “effect of mutation on agonist activity / potency (in words)” value (FP Y92A) was “decreased activity”. For the same compound, the “∆pEC50 (pEC50 of agonist to mutant minus pEC50 to WT)” value (FP M115A; M115A mutant vs WT FP, IP1 accumulation, AD293 cells, single values of n = 3 independent samples) was -2.0 and -2.1 and -1.9, the “decrease of affinity by mutation” value (FP M115A; M115 mutated to alanine vs WT FP) was “approximately 100 fold” and the “∆pEC50 (pEC50 of agonist to mutant minus pEC50 to WT)” value (FP S118A) was 0.3 and 0.0 and 0.2. For the same compound, the “effect of mutation on agonist activity / potency (in words)” value (FP T184A) was “decreased activity”, the “effect of mutation on agonist affinity (in words)” value (FP F205A) was “significantly impaired the affinity” and the “effect of mutation on agonist affinity / induced activation (in words)” value (FP W262A) was “significantly impaired the affinity”. For the same compound, the “∆pEC50 (pEC50 of agonist to mutant minus pEC50 to WT)” value (FP F265A; F265A mutant vs WT FP, IP1 accumulation, AD293 cells, single values of n = 3 independent samples) was -2.8 and -2.7, the “effect of mutation on agonist affinity (in words)” value (FP F265A; F265 to alanine vs WT FP) was “significantly impaired the affinity” and the “effect of mutation on agonist affinity (in words)” value (FP I290A) was “significantly impaired the affinity”. For the same compound, the “∆pEC50 (pEC50 of agonist to mutant minus pEC50 to WT)” value (FP R291A; R291A mutant vs WT FP, IP1 accumulation, AD293 cells, single values of n = 3 independent samples) was -2.6 and -2.4 and -2.5, the “effect of mutation on agonist activity / potency (in words)” value (FP R291A; R291 mutant (alanine) vs WT FP) was “decreased activity” and the “∆pEC50 (pEC50 of agonist to mutant minus pEC50 to WT)” value (FP T294A; T294A mutant vs WT FP, IP1 accumulation, AD293 cells, single values of n = 3 independent samples) was -2.2 and -2.3 and -2.0. For the same compound, the “effect of mutation on agonist affinity / potency (in words)” value (FP T294A; T294 to alanine vs WT FP) was “significantly impaired the affinity”, the “∆pEC50 (pEC50 of agonist to mutant minus pEC50 to WT)” value (FP Q297A) was -1.9 and -1.8 and the “effect of mutation on agonist potency (in words)” value (FP L123A) was “decreased potency”. For the same compound, the “effect of mutation on agonist potency (in words)” value (FP L213A) was “decreased potency”, the “effect of mutation on agonist activity (in words)” value (FP mutant of E132) was “decreased PGF2α activity” and the “IP1 accumulation response to PGF2α” value (FP R133A; log[PGF2α] -5) was 21.57 and 17.44 and 18.01. For the same compound, the “IP1 accumulation response to PGF2α” value (FP R133A; log[PGF2α] -6) was 20.73 and 14.37 and 13.23, the “IP1 accumulation response to PGF2α” value (FP R133A; log[PGF2α] -7) was 14.89 and 14.23 and 16.03 and the “IP1 accumulation response to PGF2α” value (FP R133A; log[PGF2α] -8) was 16.86 and 14.19 and 10.91. The “IP1 accumulation response to PGF2α” value (FP R133A; log[PGF2α] -9) was 17.57 and 19.43 and 13.59, the “IP1 accumulation response to PGF2α” value (FP R133A; log[PGF2α] -10) was 9.93 and 11.01 and 11.54 and the “IP1 accumulation response to PGF2α” value (FP R133A; log[PGF2α] -11) was 5.43 and 6.41 and 3.41. For the same compound, the “IP1 accumulation response to PGF2α” value (FP R133A; log[PGF2α] -14) was 0.27 and 6.69 and 6.06, the “effect of mutation on agonist activity (in words)” value (FP R133A; R133 / R133A mutant vs WT FP) was “decreased PGF2α activity; also recorded: loss of PGF2α activity” and the “effect of mutation on agonist activity (in words)” value (FP mutant of C134) was “decreased PGF2α activity”. For the same compound, the “effect of mutation on agonist activity (in words)” value (FP Q250A) was “loss of PGF2α activity” and the “effect of mutation on agonist activity (in words)” value (FP R308A) was “loss of PGF2α activity”.
